{"source": "patent US20260174646A1", "about": "“Topical detergent composition comprising ascorbyl glucoside and ascorbyl palmitat” (Mitochon S.r.l., priority 2022, published 2026)", "origin": "cited, not measured here", "data": [{"smiles": "CCCCCCCCCCCCCCCC(=O)OC[C@H](O)[C@H]1OC(=O)C(O)=C1O", "note": "[ascorbyl palmitate, Ascorbyl palmitate]", "values": [{"measurement": "ability to release ascorbic acid into the epidermis", "setting": "refs. [8,9]", "result": "reduced ability to release ascorbic acid into the epidermis"}, {"measurement": "tissue levels of ascorbic acid when applied to the skin", "setting": "topical application, ref. [7]", "result": "incapable of increasing tissue levels of ascorbic acid"}]}]}
